Measurements as given in patent US20240317706A1, “COMPOUNDS THAT MEDIATE PROTEIN DEGRADATION AND METHODS OF USE THEREOF” (Monte Rosa Therapeutics, Inc., priority 2021, published 2024).

Experiments:
[1] = target: T1, CDK2 (Homo sapiens, UniProt P24941); experiment: HiBiT assay (CDK2 degradation); format: cell-based; conditions: HEK293 clonal line with CRISPR KI HiBiT tag on CDK2, 24 hours, HiBiT Lysis Reagent
T1 construct: HEK293 clonal lines with CRISPR KI HiBiT tag on CDK2 proteins; host or cells: HEK293 clonal line, CRISPR knock-in HiBiT-CDK2, stably expressing LgBiT
Experimental: HEK293 clonal lines with CRISPR KI HiBiT tag on CDK2 proteins and stably expressing LgBiT protein were obtained from Promega (Madison, WI). Cells were plated at 5000 cells per well using Multiflo (BioTek) in 384-well white solid bottom plates (Corning, 3570BC) in 25 ul volume in DMEM media (DMEM, high glucose, HEPES, no phenol red (ThermoFisher Scientific, 21063029)) containing 10% FBS (Corning, 35-075-CV), 1% Penicillin/Streptomycin (ThermoFisher Scientific, 15140-122). Cells were incubated for 16 hours at 37° C., 5% CO2. 75 nL of a compound at 30 μM were dosed into the plate using an Echo® 650 liquid handler (Labcyte). Cells were incubated at 37° C., 5% CO2 for 24 hours. 5 ul of HiBiT Lysis Reagent (Promega, N3030) is added using Combi Multidrop (ThermoFisher Scientific), plates are incubated for 15′ at 37° C., 5% CO2 and then signal was read on a Pherastar FSX using “LUM plus” optic module.
Analysis was performed in Scinamic (Scinamic, Cambridge, MA). Luminescence response (R) was calculated by the formula: response=100*(S−N)/(P−N) where S is the signal of the well, N and P the mean negative and positive control values respectively of the same plate. The luminescence response was then fitted in Scinamic using a 3-parameter agonist logistic fit (hillslope=1, EC50>0, top/bottom unconstrained).

[2] = target: CRBN-DDB1 (Homo sapiens, UniProt Q96SW2); experiment: Compound binding to CRBN by HTRF assay; conditions: CRBN-DDB1 2.5 nM, Cy5-Thalidomide 100 nM, 30 min; Ki from geometric mean IC50 by Cheng-Prustoff transformation
CRBN-DDB1, sequence (Q96SW2 whole entry): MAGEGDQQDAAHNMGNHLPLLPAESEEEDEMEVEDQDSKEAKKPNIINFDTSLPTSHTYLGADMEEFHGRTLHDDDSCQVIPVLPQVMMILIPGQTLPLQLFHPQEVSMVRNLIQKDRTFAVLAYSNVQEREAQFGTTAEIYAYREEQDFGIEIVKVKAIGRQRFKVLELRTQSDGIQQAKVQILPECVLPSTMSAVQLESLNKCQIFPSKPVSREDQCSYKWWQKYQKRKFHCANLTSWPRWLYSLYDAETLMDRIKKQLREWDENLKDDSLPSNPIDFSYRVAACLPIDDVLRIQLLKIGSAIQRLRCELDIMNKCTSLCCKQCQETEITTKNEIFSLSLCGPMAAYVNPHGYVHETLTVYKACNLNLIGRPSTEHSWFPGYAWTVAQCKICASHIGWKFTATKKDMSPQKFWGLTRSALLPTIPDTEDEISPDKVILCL
CRBN-DDB1, sequence (Q16531 whole entry partner): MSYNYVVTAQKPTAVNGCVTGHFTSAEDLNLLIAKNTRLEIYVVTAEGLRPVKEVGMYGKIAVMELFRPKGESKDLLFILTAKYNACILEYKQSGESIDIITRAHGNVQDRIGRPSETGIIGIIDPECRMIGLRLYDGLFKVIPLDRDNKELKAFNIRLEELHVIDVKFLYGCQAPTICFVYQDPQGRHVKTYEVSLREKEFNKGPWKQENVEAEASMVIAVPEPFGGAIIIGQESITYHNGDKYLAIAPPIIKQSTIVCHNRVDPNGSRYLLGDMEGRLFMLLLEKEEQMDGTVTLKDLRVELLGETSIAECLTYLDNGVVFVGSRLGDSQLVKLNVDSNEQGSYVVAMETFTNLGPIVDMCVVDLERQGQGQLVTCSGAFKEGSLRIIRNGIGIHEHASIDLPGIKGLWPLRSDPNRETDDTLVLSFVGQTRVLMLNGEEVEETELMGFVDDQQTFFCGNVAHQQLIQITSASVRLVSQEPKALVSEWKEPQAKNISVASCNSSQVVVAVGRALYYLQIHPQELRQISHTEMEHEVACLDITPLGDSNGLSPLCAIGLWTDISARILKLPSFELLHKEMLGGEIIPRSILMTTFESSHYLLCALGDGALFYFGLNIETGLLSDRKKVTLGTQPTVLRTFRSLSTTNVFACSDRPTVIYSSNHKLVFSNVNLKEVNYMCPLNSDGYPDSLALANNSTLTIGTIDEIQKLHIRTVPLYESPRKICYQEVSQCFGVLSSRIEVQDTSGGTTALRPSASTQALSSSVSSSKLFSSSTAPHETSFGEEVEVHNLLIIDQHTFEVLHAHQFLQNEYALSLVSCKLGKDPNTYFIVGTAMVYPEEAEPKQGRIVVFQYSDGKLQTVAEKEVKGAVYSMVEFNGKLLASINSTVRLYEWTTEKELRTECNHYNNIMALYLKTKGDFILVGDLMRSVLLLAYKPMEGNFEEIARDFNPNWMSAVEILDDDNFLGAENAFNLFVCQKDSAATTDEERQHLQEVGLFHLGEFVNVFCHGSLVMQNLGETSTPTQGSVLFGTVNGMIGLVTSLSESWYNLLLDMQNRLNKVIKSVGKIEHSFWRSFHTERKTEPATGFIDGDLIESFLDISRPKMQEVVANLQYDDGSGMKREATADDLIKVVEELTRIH
In short: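 HTRF displacement of Cy5-thalidomide probe (100 nM) from His-CRBN-DDB1 (2.5 nM) with anti-His terbium cryptate, in HEPES/NaCl/TCEP/EDTA/Tween20 buffer. 10-point 1:3 compound series, 30 min at ambient temperature; signal normalised to DMSO and lenalidomide controls, IC50 fitted and Ki derived by Cheng-Prusoff.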

Row | SMILES | Dmax [1] [%] | Ki [2] [µM]
1 | C[C@H]1COC[C@@H]1OC(=O)NCc1ccc2c(c1)C(=O)N(C1CCC(=O)NC1=O)C2 (stereo partly drawn) [Compound 30, (3R,4S)-4-methyloxolan-3-yl N-{[2-(2,6-dioxopiperidin-3-yl)-3-oxo-2,3-dihydro-1H-isoindol-5-yl]methyl}carbamate] | ≤ 10 | 0.1 to 1
2 | O=C1CCC(N2Cc3ccc(CNC(=O)OC4CC5(CCCCC5)C4)cc3C2=O)C(=O)N1 (stereo not drawn) [Compound 4, spiro[3.5]nonan-2-yl ((2-(2,6-dioxopiperidin-3-yl)-3-oxoisoindolin-5-yl)methyl)carbamate] | 50 to 80 | 0.1 to 1
3 | O=C1CCC(N2Cc3ccc(CNC(=O)OCC45CC(c6ccccc6)(C4)C5)cc3C2=O)C(=O)N1 (stereo not drawn) [Compound 6, (3-phenylbicyclo[1.1.1]pentan-1-yl)methyl ((2-(2,6-dioxopiperidin-3-yl)-3-oxoisoindolin-5-yl)methyl)carbamate] | 10 to 50 | –
4 | O=C1CCC(N2Cc3ccc(CNC(=O)O[C@@H]4CCC[C@H]4c4ccccc4)cc3C2=O)C(=O)N1 (mixture of isomers) [Compound 26, rac-(1R,2S)-2-phenylcyclopentyl N-{[2-(2,6-dioxopiperidin-3-yl)-3-oxo-2,3-dihydro-1H-isoindol-5-yl]methyl}carbamate] | 10 to 50 | ≤ 0.1
5 | O=C1CCC(N2Cc3ccc(CNC(=O)OC[C@H]4CCCO4)cc3C2=O)C(=O)N1 (stereo partly drawn) [Compound 29, [(2R)-oxolan-2-yl]methyl N-{[2-(2,6-dioxopiperidin-3-yl)-3-oxo-2,3-dihydro-1H-isoindol-5-yl]methyl}carbamate] | ≤ 10 | ≤ 0.1
6 | O=C1CCC(N2Cc3ccc(CNC(=O)OCC4(c5ccccc5)CC(F)(F)C4)cc3C2=O)C(=O)N1 (stereo not drawn) [Compound 38, (3,3-difluoro-1-phenylcyclobutyl)methyl N-{[2-(2,6-dioxopiperidin-3-yl)-3-oxo-2,3-dihydro-1H-isoindol-5-yl]methyl}carbamate] | 10 to 50 | ≤ 0.1
7 | O=C1CCC(N2Cc3ccc(CNC(=O)OC4Cc5ccccc54)cc3C2=O)C(=O)N1 (stereo not drawn) [Compound 35, bicyclo[4.2.0]octa-1,3,5-trien-7-yl N-{[2-(2,6-dioxopiperidin-3-yl)-3-oxo-2,3-dihydro-1H-isoindol-5-yl]methyl}carbamate] | 10 to 50 | ≤ 0.1
8 | CC1(C)CCC(OC(=O)NCc2ccc3c(c2)C(=O)N(C2CCC(=O)NC2=O)C3)CC1 (stereo not drawn) [Compound 1, 4,4-dimethylcyclohexyl ((2-(2,6-dioxopiperidin-3-yl)-3-oxoisoindolin-5-yl)methyl)carbamate] | 10 to 50 | 0.1 to 1
9 | CN1C(=O)CCC1COC(=O)NCc1ccc2c(c1)C(=O)N(C1CCC(=O)NC1=O)C2 (stereo not drawn) [Compound 36, (1-methyl-5-oxopyrrolidin-2-yl)methyl N-{[2-(2,6-dioxopiperidin-3-yl)-3-oxo-2,3-dihydro-1H-isoindol-5-yl]methyl}carbamate] | ≤ 10 | ≤ 0.1
10 | CC1(CCCOC(=O)NCc2ccc3c(c2)C(=O)N(C2CCC(=O)NC2=O)C3)CC1 (stereo not drawn) [Compound 65, 3-(1-methylcyclopropyl)propyl N-{[2-(2,6-dioxopiperidin-3-yl)-3-oxo-2,3-dihydro-1H-isoindol-5-yl]methyl}carbamate] | 50 to 80 | ≤ 0.1
11 | CC1(C)CC(OC(=O)NCc2ccc3c(c2)C(=O)N(C2CCC(=O)NC2=O)C3)C1 (stereo not drawn) [Compound 31, 3,3-dimethylcyclobutyl N-{[2-(2,6-dioxopiperidin-3-yl)-3-oxo-2,3-dihydro-1H-isoindol-5-yl]methyl}carbamate] | 10 to 50 | 0.1 to 1
12 | O=C1CCC(N2Cc3ccc(CNC(=O)OCC4CCCCO4)cc3C2=O)C(=O)N1 (stereo not drawn) [Compound 41, (oxan-2-yl)methyl N-{[2-(2,6-dioxopiperidin-3-yl)-3-oxo-2,3-dihydro-1H-isoindol-5-yl]methyl}carbamate] | 10 to 50 | 0.1 to 1
13 | CC1(COC(=O)NCc2ccc3c(c2)C(=O)N(C2CCC(=O)NC2=O)C3)COC1 (stereo not drawn) [Compound 16, (3-methyloxetan-3-yl)methyl N-{[2-(2,6-dioxopiperidin-3-yl)-3-oxo-2,3-dihydro-1H-isoindol-5-yl]methyl}carbamate] | ≤ 10 | 0.1 to 1
14 | O=C1CCC(N2Cc3ccc(CNC(=O)OCC4CCc5ccccc54)cc3C2=O)C(=O)N1 (stereo not drawn) [Compound 18, (2,3-dihydro-1H-inden-1-yl)methyl N-{[2-(2,6-dioxopiperidin-3-yl)-3-oxo-2,3-dihydro-1H-isoindol-5-yl]methyl}carbamate] | 10 to 50 | 0.1 to 1
15 | O=C1CCC(N2Cc3ccc(CNC(=O)OCCOC4CC4)cc3C2=O)C(=O)N1 (stereo not drawn) [Compound 21, 2-cyclopropoxyethyl N-{[2-(2,6-dioxopiperidin-3-yl)-3-oxo-2,3-dihydro-1H-isoindol-5-yl]methyl}carbamate] | ≤ 10 | 0.1 to 1
16 | O=C1CCC(N2Cc3ccc(CNC(=O)O[C@@H]4C[C@H]5CC[C@@H]4O5)cc3C2=O)C(=O)N1 (mixture of isomers) [Compound 27, rac-(1R,2S,4S)-7-oxabicyclo[2.2.1]heptan-2-yl N-{[2-(2,6-dioxopiperidin-3-yl)-3-oxo-2,3-dihydro-1H-isoindol-5-yl]methyl}carbamate] | ≤ 10 | 0.1 to 1
17 | O=C1CCC(N2Cc3ccc(CNC(=O)OC4CCc5ccccc5C4)cc3C2=O)C(=O)N1 (stereo not drawn) [Compound 17, 1,2,3,4-tetrahydronaphthalen-2-yl N-{[2-(2,6-dioxopiperidin-3-yl)-3-oxo-2,3-dihydro-1H-isoindol-5-yl]methyl}carbamate] | 10 to 50 | 0.1 to 1
18 | CC1(COC(=O)NCc2ccc3c(c2)C(=O)N(C2CCC(=O)NC2=O)C3)CCCO1 (stereo not drawn) [Compound 22, (2-methyloxolan-2-yl)methyl N-{[2-(2,6-dioxopiperidin-3-yl)-3-oxo-2,3-dihydro-1H-isoindol-5-yl]methyl}carbamate] | ≤ 10 | 0.1 to 1

More lines, now with the values ahead:

Row | Dmax [1] [%] | Ki [2] [µM] | SMILES
19 | 50 to 80 | ≤ 0.1 | O=C1CCC(N2Cc3ccc(CNC(=O)OCC4CC5(C4)CC54CCC4)cc3C2=O)C(=O)N1 (stereo not drawn) [Compound 93, {dispiro[3.0.3^5.1^4]nonan-2-yl}methyl N-{[2-(2,6-dioxopiperidin-3-yl)-3-oxo-2,3-dihydro-1H-isoindol-5-yl]methyl}carbamate]
20 | 50 to 80 | ≤ 0.1 | O=C1CCC(N2Cc3ccc(CNC(=O)OCC4C(F)(F)C45CC5)cc3C2=O)C(=O)N1 (stereo not drawn) [Compound 86, {2,2-difluorospiro[2.2]pentan-1-yl}methyl N-{[2-(2,6-dioxopiperidin-3-yl)-3-oxo-2,3-dihydro-1H-isoindol-5-yl]methyl}carbamate]
21 | 50 to 80 | ≤ 0.1 | CC(C)(CCOC(=O)NCc1ccc2c(c1)C(=O)N(C1CCC(=O)NC1=O)C2)C1CC1 (stereo not drawn) [Compound 69, 3-cyclopropyl-3-methylbutyl N-{[2-(2,6-dioxopiperidin-3-yl)-3-oxo-2,3-dihydro-1H-isoindol-5-yl]methyl}carbamate]
22 | 10 to 50 | 0.1 to 1 | O=C1CCC(N2Cc3ccc(CNC(=O)OCC4CC45CCC(F)(F)CC5)cc3C2=O)C(=O)N1 (stereo not drawn) [Compound 95, {6,6-difluorospiro[2.5]octan-1-yl}methyl N-{[2-(2,6-dioxopiperidin-3-yl)-3-oxo-2,3-dihydro-1H-isoindol-5-yl]methyl}carbamate]
23 | 10 to 50 | 0.1 to 1 | O=C1CCC(N2Cc3ccc(CNC(=O)OCC4CC5(CCCC5)CO4)cc3C2=O)C(=O)N1 (stereo not drawn) [Compound 94, {2-oxaspiro[4.4]nonan-3-yl}methyl N-{[2-(2,6-dioxopiperidin-3-yl)-3-oxo-2,3-dihydro-1H-isoindol-5-yl]methyl}carbamate]
24 | 10 to 50 | 0.1 to 1 | O=C1CCC(N2Cc3ccc(CNC(=O)OCC4CCC(F)(F)CC4)cc3C2=O)C(=O)N1 (stereo not drawn) [Compound 88, (4,4-difluorocyclohexyl)methyl N-{[2-(2,6-dioxopiperidin-3-yl)-3-oxo-2,3-dihydro-1H-isoindol-5-yl]methyl}carbamate]
25 | ≤ 10 | 0.1 to 1 | O=C1CCC(N2Cc3ccc(CNC(=O)OCC4(F)CCC4)cc3C2=O)C(=O)N1 (stereo not drawn) [Compound 74, (1-fluorocyclobutyl)methyl N-{[2-(2,6-dioxopiperidin-3-yl)-3-oxo-2,3-dihydro-1H-isoindol-5-yl]methyl}carbamate]
26 | 10 to 50 | 0.1 to 1 | CCOC1CC(COC(=O)NCc2ccc3c(c2)C(=O)N(C2CCC(=O)NC2=O)C3)C1 (stereo not drawn) [Compound 67, (3-ethoxycyclobutyl)methyl N-{[2-(2,6-dioxopiperidin-3-yl)-3-oxo-2,3-dihydro-1H-isoindol-5-yl]methyl}carbamate]
